Experimental data reported in US8747815B2, “Use of a cosmetic of pharmaceutical composition, comprising a lupeol-rich extract as an active ingredient for stimulating the synthesis of heat shock proteins” (Laboratoires Expanscience, priority 2003, dated 2014).

Experiments:
[1] = tested on: fibroblasts from an older white stretch mark (FVb); assay: Isometric forces developed by fibroblasts in lattice, white stretch mark fibroblasts; format: cell-based; details: FVb + lupeol 7 μg/ml, at 7 hours of culture; FVb alone 3999 V±881
Description: (§1) Normal fibroblasts (FS), fibroblasts from a red or recent stretch mark (FVr) and fibroblasts from an older white stretch mark (FVb) were used in this study. Mechanical inhibition of the retraction of the collagen gel in which fibroblasts are embedded is reflected by the generation of a force, called “retraction force” or “isometric force”. The lattices develop in a culture dish that consists of 8 rectangular cells. Placed into each one are 2 flexible silicon slides, the lower parts of which consist of grids to which the lattice attaches when it polymerizes. The lattice develops between 2 slides so as to give a rectangular shape that is slightly shrunken at the center. This shape in conventional mechanics is referred to as a “diabolo” shape. These slides have, in their upper part, a strain gauge system made of gold deposited at their surface. Under the influence of the retraction force developed by the fibroblasts, the silicon slides distort. This is reflected by a variation in the value of electrical resistance of the stress gauge, measured by means of a Wheatstone bridge. This variation indicates the force developed within the lattice, measured in real time via a PC acquisition card and suitable software. The mixture for producing the lattices was poured into the rectangular cells of the culture dish. A gel formed in a few minutes at 37° C. […] The isometric forces were measured for 48 hours.

[2] = tested on: fibroblasts from a red or recent stretch mark (FVr); assay: Isometric forces developed by fibroblasts in lattice, red stretch mark fibroblasts; format: cell-based; details: FVr + lupeol 7 μg/ml, at 7 hours of culture; FVr alone 5547 V±808
Description: as §1

[3] = tested on: FS, FVr and FVb fibroblasts; assay: Demonstration of F actin (phalloidin-FITC) in fibroblasts cultured in lattice; format: cell-based; details: lupeol 7 μg/ml, lattices cultured for 5 days
Experimental: Normal fibroblasts (FS), fibroblasts from a red or recent stretch mark (FVr) and fibroblasts from an older white stretch mark (FVb) were used in this study. The fibroblasts were cultured in the absence or in the presence of lupeol at a concentration of 7 μg/ml. Fibroblasts are large (100 μm) cells with a fusiform or star-shaped morphology. Their cytoplasm contains an assembly of protein filaments (intermediate filaments, microtubules, actin filaments) which constitute the framework, or cytoskeleton, thereof in close relationship with the plasma membrane. 10% of all cell proteins consist of actin, polymerized in the form of filaments and bundles, which are often described as stress fibers. Actin filaments contribute to the contractile activity of the fibroblast by generating isometric forces. Several types of actin exist, including polymerized fibrillar actin (F actin) and a smooth muscle actin (αSM actin). Lattices pulled over a nylon ring were cultured for 5 days in Petri dishes (Ø 50 mm). They were fixed with 3% paraformaldehyde in PBS for 20 min, and then rinsed with PBS. They were subsequently incubated with PBS+0.1% Triton X100 in order to permeabilize the membrane. […] They were mounted between slide and cover slip with a drop of Vectashield, and were then observed under a fluorescence microscope, under UV.

[4] = tested on: fibroblasts from an older white stretch mark (FVb); assay: Retraction of collagen lattice (free lattice), white stretch mark fibroblasts; format: cell-based
Experimental: (§2) Normal fibroblasts (FS), fibroblasts from a red or recent stretch mark (FVr) and fibroblasts from an older white stretch mark (FVb) were used in this study.
(§3) The fibroblasts were cultured in the absence or in the presence of lupeol at a concentration of 7 μg/ml.
(§4) The mechanism of retraction consists of the gathering up and rearranging of collagen by fibroblasts. The collagen polymerizes into fibrils to which the cells attach. The latter pull on the fibrils by virtue of their migratory movement, and thus reorganize the matrix. The diameter of the lattice is then decreased.
(§5) The mixture for producing lattices was poured into Petri dishes 50 mm in diameter. A gel formed in a few minutes at 37° C. The lattices were cultured with or without lupeol. The degree of retraction was determined by measuring the diameters of the lattices.

[5] = tested on: fibroblasts from a red or recent stretch mark (FVr); assay: Retraction of collagen lattice (free lattice), red stretch mark fibroblasts; format: cell-based
Experimental: as §2, §3, §4, §5

HSP47 heat shock protein = assay: Western blotting, expression of the HSP47 protein in fibroblasts in culture; format: cell-based, human; details: dose of 20 μg/ml, incubation time of 48 h
Experimental: This technique consists of: • separation of the various proteins on a polyacrylamide gel under denaturing conditions; • transfer of the proteins onto a specific membrane (PVDF membrane, sold by the company Biorad); • labeling of the protein of interest with a specific antibody (HSP47, Stressgen); • “colorimetric” visualization (Sigma Fast, BCPIP/NBT). Various nontoxic concentrations (5, 10 and 20 μg/ml) and several incubation times (24 and 48 hours) were tested.

Normal fibroblasts (FS) [6] = assay: Isometric forces developed by fibroblasts in lattice, normal fibroblasts; format: cell-based; details: FS + lupeol 7 μg/ml, at 7 hours of culture; FS alone 3583 V±1076
Description: as §1

gene encoding HSP47 = assay: cDNA microarray, expression of the gene encoding HSP47 in human skin fibroblasts; format: cell-based; details: 4.5 μg/ml lupeol
Experimental: We used the “cDNA microarray” method for studying the effects of the product on the expression of the genes encoding structural and regulatory proteins of potential interest in skin physiology. Such an approach makes it possible to screen, in a single step, the effects of a product or of a treatment on gene expression in a given biological system and to obtain a signature of the effects of this treatment.
The product was applied to human skin fibroblasts cultured in MEM/M199 for 18 hours. The lupeol, in solution in ethanol was tested at the concentration of […], this concentration corresponds to a noncytotoxic dose.
The methodology used is that recommended by Clontech (Palo Alto, USA), and comprises: • a step consisting in extracting and purifying the total RNA; • a step consisting in purifying the messenger RNAs according to the AtlasPure protocol (Clontech); • labeling of the DNA probes with P^32 by reverse transcription; • purifying the label probes by exclusion column chromatography and verification of the quality and of the equivalence by liquid scintillation counting; and • hybridizing membranes (provided by the company Custom Atlas BIOAlternative) with the radiolabeled probes (68° C., overnight). Analysis of Results
The membranes were analyzed by direct quantification of the radioactivity of the spots using a Cyclone PhosphorImager (provided by the company Packard Instrument).
The results are expressed in relative units (RU, mean radioactivity of the points of the double spot corresponding to each gene, corrected for the background noise and for the differences in probe labeling intensity).
The results were analyzed case by case, label by label. Arbitrarily, the limit of significance was fixed at approximately +30% of the control for a stimulating effect, i.e. for an effect greater than 130%.

Normal fibroblasts (FS) [7] = assay: Retraction of collagen lattice (free lattice), normal fibroblasts; format: cell-based
Experimental: as §2, §3, §4, §5

human skin fibroblasts = assay: Cytotoxicity of test concentrations on fibroblasts in culture; format: cell-based
[8] = tested on: FS, FVr and FVb fibroblasts; assay: Demonstration of αSM actin (immunolabeling) in fibroblasts cultured in lattice; format: cell-based; details: lupeol 7 μg/ml, lattices cultured for 5 days
Experimental: Normal fibroblasts (FS), fibroblasts from a red or recent stretch mark (FVr) and fibroblasts from an older white stretch mark (FVb) were used in this study. The fibroblasts were cultured in the absence or in the presence of lupeol at a concentration of 7 μg/ml. Fibroblasts are large (100 μm) cells with a fusiform or star-shaped morphology. Their cytoplasm contains an assembly of protein filaments (intermediate filaments, microtubules, actin filaments) which constitute the framework, or cytoskeleton, thereof in close relationship with the plasma membrane. 10% of all cell proteins consist of actin, polymerized in the form of filaments and bundles, which are often described as stress fibers. Actin filaments contribute to the contractile activity of the fibroblast by generating isometric forces. Several types of actin exist, including polymerized fibrillar actin (F actin) and a smooth muscle actin (αSM actin). Lattices pulled over a nylon ring were cultured for 5 days in Petri dishes (Ø 50 mm). They were fixed with 3% paraformaldehyde in PBS for 20 min, and then rinsed with PBS. They were subsequently incubated with PBS+0.1% Triton X100 so as to permeabilize the membrane with respect to antibodies, and then with 3% H2O2 in order to eliminate endogenous peroxidases. […] was blocked with 3% BSA+10% sheep serum in PBS. […]

C=C(C)[C@@H]1CC[C@]2(C)CC[C@]3(C)[C@H](CC[C@@H]4[C@@]5(C)CC[C@H](O)C(C)(C)[C@@H]5CC[C@]43C)[C@@H]12 [lupeol, Lupeol]
isometric forces [1]: 1365 V | isometric forces [2]: 2488 V | F actin stress fibers and fibroblast morphology [3]: lose their F actin stress fibers and evolve toward a star-shaped form | Gel diameter ([4]; FVb + lupeol 7 μg/ml, FVb alone 2.9): 3.2 | % decrease in retraction ([4]; FVb, lupeol 7 μg/ml, at D2): 10% | Gel diameter ([5]; FVr + lupeol 7 μg/ml, FVr alone 3): 3.6 | % decrease in retraction ([5]; FVr, lupeol 7 μg/ml, at D2): 20% | HSP47 production (Western blotting) (HSP47 heat shock protein): stimulation of HSP47 production | isometric forces (Normal fibroblasts (FS) [6]): 1325 V | HSP47 gene expression, % of the control (gene encoding HSP47; 18 hours, human skin fibroblasts): 129 % of the control | HSP47 gene expression, relative units (RU) (gene encoding HSP47; 18 hours, human skin fibroblasts, control cells 28.2 RU): 36.4 RU | regulation of the expression of the gene encoding HSP47 (gene encoding HSP47; incubation for 18 hours): positive regulation | Gel diameter (Normal fibroblasts (FS) [7]; FS + lupeol 7 μg/ml, FS alone 2.5): 3 | % decrease in retraction (Normal fibroblasts (FS) [7]; FS, lupeol 7 μg/ml, at D2): 20% | cytotoxicity of the tested concentration (human skin fibroblasts; 4.5 μg, in solution in ethanol, human skin fibroblasts): noncytotoxic | toxicity of the tested concentrations (human skin fibroblasts; 5, 10 and 20 μg/ml, fibroblasts in culture): nontoxic | labeling for αSM actin [8]: weak labeling for αSM actin
